Values quoted from earlier work in patent US20260265370A1, “COMBINATION THERAPIES INVOLVING CLAUDIN 18.2 ANTAGONISTS FOR TREATMENT OF CANCER” (SUZHOU TRANSCENTA THERAPEUTICS CO., LTD., priority 2023, published 2026).
Where two headings read alike, the source gives them in different places.

Tests used:
[1] = test system: unresectable advanced or recurrent gastric cancer; details: cited from earlier work
[2] = test system: CLDN18.2+/HER2− locally advanced or metastatic gastric or gastroesophageal junction (mG/GEJ) adenocarcinoma; details: cited from earlier work; for ORR: patients with measurable disease
[3] = test system: advanced GC/GEJ cancer; details: cited from earlier work
[4] = CLDN18.2 ≥75% tumor cell staining 2+ or 3+
[5] = zolbetuximab+CAPOX vs PBO+CAPOX

Substance: Nivolumab: PD-1 checkpoint inhibitor
- ORR ([1]; in vivo): 11%
- 12-month OS rate ([1]; n=330): 26.2%
- overall survival (OS) ([1]; progressed after two or more chemotherapy regimens): 5.26 months
- HR of OS ([1]; vs placebo): 0.63

Substance: Zolbetuximab + CAPOX: GLOW arm: zolbetuximab plus capecitabine and oxaliplatin
- mDoR [2, 4]: 6.28 months
- mPFS [2, 4]: 8.21 months
- ORR [2, 4]: 53.8%
- ORR ([2]; CLDN18.2 ≥75% tumor cell staining 2+ or 3+, listed as Zolbetuximab+CAPOX): 53.8%
- ORR ([2]; CLDN18.2 ≥75% tumor cell staining 2+ or 3+, listed as zolbetuximab+CAPOX): 53.8%
- OS median ([2]; in vivo): 14.39 mo
- TEAE decreased appetite ([2]; in vivo): 41.3%
- TEAE nausea ([2]; in vivo): 68.5%
- TEAE vomiting ([2]; in vivo): 66.1%
- drug-related TEAEs leading to death ([2]; in vivo): 2.4%
- grade ≥3 TEAEs ([2]; in vivo): 72.8%
- serious TEAEs ([2]; in vivo): 47.2%
- HR of OS [2, 5]: 0.771
- HR of PFS [2, 5]: 0.687

Substance: Zolbetuximab: first-in-class, chimeric monoclonal antibody specific to a CLDN18.2 epitope
- tolerability ([3]; in vivo): well-tolerated
- ORR ([3]; phase IIa monotherapy, strong CLDN18.2 expression, ≥2+ staining intensity in 70% of tumor cells): 14%
